Earlier results on 1 substance are cited in paper PMC3206815, “An Essential Farnesylated Kinesin in Trypanosoma brucei” (PLoS ONE, 2011).

The data set addresses T1, TB-PFT (T. brucei protein farnesyl transferase) (Trypanosoma brucei, UniProt Q57U08+Q580J3).
T1 construct: gene Tb07.8P12.660; heterodimer
T1 sequence (Q57U08 1-585): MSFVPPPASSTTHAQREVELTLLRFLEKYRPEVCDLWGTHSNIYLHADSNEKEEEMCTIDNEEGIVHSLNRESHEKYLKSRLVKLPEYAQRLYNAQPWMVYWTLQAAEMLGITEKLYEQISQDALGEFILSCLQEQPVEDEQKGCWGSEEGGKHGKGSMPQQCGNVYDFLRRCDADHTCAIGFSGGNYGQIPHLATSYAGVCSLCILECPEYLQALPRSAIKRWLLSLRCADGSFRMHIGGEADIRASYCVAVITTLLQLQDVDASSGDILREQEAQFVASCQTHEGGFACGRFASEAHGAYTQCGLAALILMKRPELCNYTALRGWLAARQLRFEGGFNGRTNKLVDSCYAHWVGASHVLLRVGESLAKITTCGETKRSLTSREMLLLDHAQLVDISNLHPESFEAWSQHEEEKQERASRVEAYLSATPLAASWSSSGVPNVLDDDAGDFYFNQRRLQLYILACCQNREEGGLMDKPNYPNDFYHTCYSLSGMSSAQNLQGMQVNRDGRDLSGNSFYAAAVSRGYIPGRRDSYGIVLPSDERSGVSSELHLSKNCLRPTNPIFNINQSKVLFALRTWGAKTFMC
T1 sequence (Q580J3 1-612): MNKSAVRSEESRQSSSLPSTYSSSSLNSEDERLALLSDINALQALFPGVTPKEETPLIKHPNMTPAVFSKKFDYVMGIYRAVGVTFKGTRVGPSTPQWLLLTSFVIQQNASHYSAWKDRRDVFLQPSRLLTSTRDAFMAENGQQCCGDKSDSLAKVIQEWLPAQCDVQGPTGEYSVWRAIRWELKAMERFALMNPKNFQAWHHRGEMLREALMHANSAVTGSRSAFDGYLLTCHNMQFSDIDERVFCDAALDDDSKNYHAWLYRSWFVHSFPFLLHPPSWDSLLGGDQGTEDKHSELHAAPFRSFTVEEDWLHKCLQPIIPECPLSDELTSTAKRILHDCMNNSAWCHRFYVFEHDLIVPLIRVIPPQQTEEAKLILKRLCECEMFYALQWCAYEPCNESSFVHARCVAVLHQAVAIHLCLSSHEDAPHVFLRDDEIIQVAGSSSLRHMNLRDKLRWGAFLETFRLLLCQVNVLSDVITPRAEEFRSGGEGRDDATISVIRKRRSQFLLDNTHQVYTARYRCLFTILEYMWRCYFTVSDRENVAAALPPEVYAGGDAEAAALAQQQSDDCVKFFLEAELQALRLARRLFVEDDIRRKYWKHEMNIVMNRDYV
Put plainly: PFT inhibition, method not described here. The note with it: value printed without citation or assay method; cited from earlier work. In kind it is biochemical.

The IC50 is the concentration that gives 50% inhibition. As for LN-59, the IC50 is 0.035 µM.
